Records with an inconclusive call do not appear.
System: B6C3F1 mice, colon carcinoma 38 s.c., T/C
Assay: NCI In Vivo Anticancer Drug Screen. Data for tumor model Colon Carcinoma 38 (subcutaneous) in B6C3F1 mice
Settings: endpoint: median tumor weight (est.), schedule: Q07DX002 (ip), higher = larger tumour
Experimental: The antitumor activity of compounds was measured in mice bearing transplantable tumors. Survival or tumor size were measured and the results are expressed as the measurement made in the treated group (T) divided by the measurement made in the vehicle treated control group (C). The tumor model used in this assay is Colon Carcinoma 38 (subcutaneous) in B6C3F1 mice

[1] = dose: 50.0 mg/kg/injection, vehicle: Klucel (hydroxypropylcellulose) (HPC)
[2] = dose: 100.0 mg/kg/injection, vehicle: Klucel (hydroxypropylcellulose) (HPC)
[3] = dose: 200.0 mg/kg/injection, vehicle: Klucel (hydroxypropylcellulose) (HPC)

For `Cc1c2cc[n+](CCN3CCCCC3)cc2c(C)c2c1[nH]c1ccc(O)cc12`, the T/C (dose: 6.25 mg/kg/injection, vehicle: suspension in saline) was 83 % of control, the T/C (dose: 12.5 mg/kg/injection, vehicle: suspension in saline) was 71 % of control and the T/C (dose: 25.0 mg/kg/injection, vehicle: suspension in saline) was 62 % of control. For the same compound, the T/C (dose: 50.0 mg/kg/injection, vehicle: suspension in saline) was 53 % of control and the T/C (dose: 100.0 mg/kg/injection, vehicle: suspension in saline) was 34 % of control.

With `CCCCCNc1ncnc2c(C)[nH]nc12` the T/C [1] was 123 % of control, the T/C [2] was 102 % of control and the T/C [3] was 77 % of control.

For `C[C@@H]1CC[C@]2(C)CC[C@]3(C)C(=CC[C@@H]4[C@@]5(C)CC[C@@H](OC(=O)c6ccc(O)cc6)C(C)(C)[C@@H]5C[C@H](O)[C@]43C)[C@@H]2[C@H]1C(=O)O`, the T/C (dose: 0.12 mg/kg/injection, vehicle: saline with Tween-80) was 164 % of control, the T/C (dose: 0.5 mg/kg/injection, vehicle: saline with Tween-80) was 49 % of control and the T/C (dose: 1.0 mg/kg/injection, vehicle: saline with Tween-80) was 50 % of control. The T/C (dose: 2.0 mg/kg/injection, vehicle: saline with Tween-80) was 50 % of control.

With `CCNC(=O)[B-][N+](C)(C)C` the T/C (dose: 25.0 mg/kg/injection, vehicle: Klucel (hydroxypropylcellulose) (HPC)) was 101 % of control, the T/C [1] was 55 % of control and the T/C [2] was 87 % of control. The T/C [3] was 107 % of control and the T/C (dose: 400.0 mg/kg/injection, vehicle: Klucel (hydroxypropylcellulose) (HPC)) was 81 % of control.

For `CN(CCN(C)C(=O)CCOS(C)(=O)=O)C(=O)CCOS(C)(=O)=O`, the T/C (dose: 12.5 mg/kg/injection, vehicle: saline) was 121 % of control, the T/C (dose: 25.0 mg/kg/injection, vehicle: saline) was 92 % of control and the T/C (dose: 50.0 mg/kg/injection, vehicle: saline) was 51 % of control. The T/C (dose: 100.0 mg/kg/injection, vehicle: saline) was 51 % of control and the T/C (dose: 200.0 mg/kg/injection, vehicle: saline) was 12 % of control.

With `Cc1c2ccccc2c(C)c2c1cc(C(=O)O)c1ccccc12` the T/C (dose: 12.5 mg/kg/injection, vehicle: sodium bicarbonate) was 66 % of control, the T/C (dose: 25.0 mg/kg/injection, vehicle: sodium bicarbonate) was 98 % of control and the T/C (dose: 50.0 mg/kg/injection, vehicle: sodium bicarbonate) was 74 % of control. For the same compound, the T/C (dose: 62.5 mg/kg/injection, vehicle: sodium bicarbonate) was 112 % of control, the T/C (dose: 100.0 mg/kg/injection, vehicle: sodium bicarbonate) was 107 % of control and the T/C (dose: 125.0 mg/kg/injection, vehicle: sodium bicarbonate) was 106 % of control. The T/C (dose: 200.0 mg/kg/injection, vehicle: sodium bicarbonate) was 108 % of control, the T/C (dose: 250.0 mg/kg/injection, vehicle: sodium bicarbonate) was 76 % of control and the T/C (dose: 500.0 mg/kg/injection, vehicle: sodium bicarbonate) was 26 % of control. For the same compound, the T/C (dose: 1000.0 mg/kg/injection, vehicle: sodium bicarbonate) was 23 % of control.

In the case of `O=C1N[C@@H]2C(=C[C@H](O)[C@@H](O)[C@H]2O)c2cc3c(c(O)c21)OCO3`, the T/C (dose: 1.25 mg/kg/injection, vehicle: saline with Tween-80) is reported as 123 % of control, the T/C (dose: 5.0 mg/kg/injection, vehicle: saline with Tween-80) is reported as 60 % of control and the T/C (dose: 10.0 mg/kg/injection, vehicle: saline with Tween-80) is reported as 69 % of control. The T/C (dose: 20.0 mg/kg/injection, vehicle: saline with Tween-80) was 43 % of control.

In the case of `NC(=O)CCC(N)C(=O)O` (stereo not drawn), the T/C (dose: 75.0 mg/kg/injection, vehicle: suspension in saline) is reported as 113 % of control, the T/C (dose: 150.0 mg/kg/injection, vehicle: suspension in saline) is reported as 43 % of control and the T/C (dose: 300.0 mg/kg/injection, vehicle: suspension in saline) is reported as 84 % of control. The T/C (dose: 600.0 mg/kg/injection, vehicle: suspension in saline) was 101 % of control and the T/C (dose: 1200.0 mg/kg/injection, vehicle: suspension in saline) was 91 % of control.

With `OCCO` the T/C (dose: 1.0 % in 0.5 ml injection vol, vehicle: water) was 181 % of control and the T/C (dose: 2.0 % in 0.5 ml injection vol, vehicle: water) was 160 % of control.

Source: PubChem BioAssay AID214 (DTP/NCI, 2004)
